Values of other authors as cited in patent publication US6620802B1, “Methods of treating mild cognitive impairment using a glucocorticoid-specific receptor antagonist” (Corcept Therapeutics, Inc., priority 1999, dated 2003).
Values belong to the compound of their own block, whether it stands above or below them.

How the values were obtained:
[1] = one study, Kawai (1989) supra
[2] = tested on: mouse hippocampus neuronal cells; details: Behl et al. 1997
[3] = target: T1, progesterone receptor (Homo sapiens, UniProt P06401); details: literature statement
T1 sequence (P06401 1-933): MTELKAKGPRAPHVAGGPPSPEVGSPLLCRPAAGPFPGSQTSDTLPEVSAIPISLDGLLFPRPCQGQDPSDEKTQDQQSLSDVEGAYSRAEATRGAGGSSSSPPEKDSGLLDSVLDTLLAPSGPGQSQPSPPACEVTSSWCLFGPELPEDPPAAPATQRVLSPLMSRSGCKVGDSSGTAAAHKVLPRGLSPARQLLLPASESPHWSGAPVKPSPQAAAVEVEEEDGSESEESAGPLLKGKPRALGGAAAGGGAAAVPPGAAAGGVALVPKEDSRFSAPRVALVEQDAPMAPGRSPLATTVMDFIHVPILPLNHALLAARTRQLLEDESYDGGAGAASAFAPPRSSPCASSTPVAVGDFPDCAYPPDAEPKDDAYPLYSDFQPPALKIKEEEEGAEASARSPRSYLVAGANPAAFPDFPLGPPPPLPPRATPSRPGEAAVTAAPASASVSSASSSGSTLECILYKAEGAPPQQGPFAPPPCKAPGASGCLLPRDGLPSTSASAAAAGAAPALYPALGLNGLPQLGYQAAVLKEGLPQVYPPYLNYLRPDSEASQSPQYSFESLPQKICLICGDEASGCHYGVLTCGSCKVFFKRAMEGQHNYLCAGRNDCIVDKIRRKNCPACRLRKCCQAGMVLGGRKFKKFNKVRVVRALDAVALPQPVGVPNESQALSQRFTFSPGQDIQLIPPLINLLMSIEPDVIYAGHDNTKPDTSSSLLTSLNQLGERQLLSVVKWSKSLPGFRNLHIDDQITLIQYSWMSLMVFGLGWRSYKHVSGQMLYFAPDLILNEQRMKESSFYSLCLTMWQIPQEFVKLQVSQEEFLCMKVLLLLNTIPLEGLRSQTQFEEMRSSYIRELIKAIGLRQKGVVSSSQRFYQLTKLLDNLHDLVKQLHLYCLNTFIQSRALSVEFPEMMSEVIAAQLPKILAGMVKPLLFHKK

[4] = tested on: rat hippocampus; details: Talmi et al. 1996
[5] = target: T2, glucocorticoid (GR) receptor (Homo sapiens, UniProt P04150); details: literature statement
T2 sequence (P04150 1-777): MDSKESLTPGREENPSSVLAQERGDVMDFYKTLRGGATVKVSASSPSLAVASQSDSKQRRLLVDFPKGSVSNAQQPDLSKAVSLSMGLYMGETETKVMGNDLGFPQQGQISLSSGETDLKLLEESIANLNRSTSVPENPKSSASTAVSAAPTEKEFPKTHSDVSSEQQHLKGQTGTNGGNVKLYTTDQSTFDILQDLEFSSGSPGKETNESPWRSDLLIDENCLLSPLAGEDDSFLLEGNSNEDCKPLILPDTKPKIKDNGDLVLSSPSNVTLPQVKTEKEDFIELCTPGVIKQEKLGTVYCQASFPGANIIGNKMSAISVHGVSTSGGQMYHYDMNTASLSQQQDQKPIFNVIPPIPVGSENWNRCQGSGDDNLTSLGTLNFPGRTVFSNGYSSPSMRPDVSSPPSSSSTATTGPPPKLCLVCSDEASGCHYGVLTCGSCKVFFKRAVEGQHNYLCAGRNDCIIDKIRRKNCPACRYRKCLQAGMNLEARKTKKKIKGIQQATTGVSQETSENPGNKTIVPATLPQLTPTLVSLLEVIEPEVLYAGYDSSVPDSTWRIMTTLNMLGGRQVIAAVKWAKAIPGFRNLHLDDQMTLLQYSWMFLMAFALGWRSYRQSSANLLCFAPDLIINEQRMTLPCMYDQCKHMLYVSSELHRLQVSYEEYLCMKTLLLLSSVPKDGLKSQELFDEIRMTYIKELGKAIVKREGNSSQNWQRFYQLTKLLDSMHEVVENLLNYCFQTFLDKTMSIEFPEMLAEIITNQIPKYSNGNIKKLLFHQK

Compound: CC#C[C@]1(O)CC[C@H]2[C@@H]3CCC4=CC(=O)CCC4=C3[C@@H](c3ccc(N(C)C)cc3)C[C@@]21C [Mifepristone, 17-beta-hydroxy-11-beta-(4-dimethyl-aminophenyl)-17-alpha(1-propynyl)-estra-4,9-dien-3-one]
share of the daily dose excreted in the urine [1]: less than 0.5% | protection against oxidative stress-induced neuronal cell death [2]: providing protection against oxidative stress-induced neuronal cell death | progesterone receptor antagonist activity [3]: powerful antagonist | effect on age-associated electrophysiological changes [4]: effective at abrogating some of the age-associated electrophysiological changes | GR antagonist activity [5]: powerful antagonist

GR antagonist activity [5]: shown to have GR antagonist effects
Compound: CC#C[C@]1(O)CC[C@H]2[C@@H]3CCC4=CC(=O)CCC4=C3[C@@H](c3ccc(OCCN(C)C)cc3)C[C@@]21C [RU009, 11-beta-(4-dimethyl-aminoethoxyphenyl)-17-alpha-(propynyl-17-beta-hydroxy-4,9-estradien-3-one)]
